We go through 18 compounds from ChEMBL document CHEMBL5241119, “Hydroxypyrone derivatives in drug discovery: from chelation therapy to rational design of metalloenzyme inhibitors” (RSC Med Chem, 2022).

In one assay the target is Acetylcholinesterase (Electrophorus electricus, UniProt O42275). The assay is described as follows: Inhibition of Electrophorus electricus AChE.
Assay [1] deals with T1, Mushroom tyrosinase (Agaricus bisporus, UniProt O42713+Q00024+C7FF04+C7FF05). Nature of the assay: Inhibition of mushroom monophenolase.
Assay [2] has as its target T1, Mushroom tyrosinase. Nature of the assay: Inhibition of mushroom diphenolase.
For assay [3], the target named is Amine oxidase [flavin-containing] B (Homo sapiens, UniProt P27338). Nature of the assay: Inhibition of human MAO-B.
Sequence of Amine oxidase [flavin-containing] B (P27338 whole entry, the tested form may be a part): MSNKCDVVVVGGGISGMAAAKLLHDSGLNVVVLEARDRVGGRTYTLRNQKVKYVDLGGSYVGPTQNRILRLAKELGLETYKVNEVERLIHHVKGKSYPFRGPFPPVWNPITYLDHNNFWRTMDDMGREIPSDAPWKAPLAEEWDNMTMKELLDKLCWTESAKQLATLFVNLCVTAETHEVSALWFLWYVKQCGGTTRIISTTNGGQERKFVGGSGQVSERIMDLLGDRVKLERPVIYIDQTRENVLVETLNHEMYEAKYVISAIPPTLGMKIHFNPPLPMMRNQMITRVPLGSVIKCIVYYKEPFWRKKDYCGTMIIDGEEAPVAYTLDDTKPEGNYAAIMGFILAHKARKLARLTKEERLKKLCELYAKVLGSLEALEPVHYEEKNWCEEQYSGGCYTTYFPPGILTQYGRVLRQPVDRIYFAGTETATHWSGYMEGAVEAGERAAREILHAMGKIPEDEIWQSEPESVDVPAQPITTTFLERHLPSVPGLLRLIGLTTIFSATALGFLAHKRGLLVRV
Assay [4] deals with Polymerase acidic protein (Influenza A virus (A/Puerto Rico/8/1934(H1N1))) (UniProt P03433). Nature of the assay: Inhibition of Influenza A virus N-terminal domain of PA endonuclease relative to control. The following applies: concentration not given here.
Assay [5] addresses T2, Macrophage metalloelastase (Homo sapiens, UniProt P39900). Nature of the assay: Inhibition of human MMP-12 relative to control. Further details: concentration or dose not given beside the values. The settings on record: concentration not given here.
Target sequence in this assay (P39900 106-470 limits assumed): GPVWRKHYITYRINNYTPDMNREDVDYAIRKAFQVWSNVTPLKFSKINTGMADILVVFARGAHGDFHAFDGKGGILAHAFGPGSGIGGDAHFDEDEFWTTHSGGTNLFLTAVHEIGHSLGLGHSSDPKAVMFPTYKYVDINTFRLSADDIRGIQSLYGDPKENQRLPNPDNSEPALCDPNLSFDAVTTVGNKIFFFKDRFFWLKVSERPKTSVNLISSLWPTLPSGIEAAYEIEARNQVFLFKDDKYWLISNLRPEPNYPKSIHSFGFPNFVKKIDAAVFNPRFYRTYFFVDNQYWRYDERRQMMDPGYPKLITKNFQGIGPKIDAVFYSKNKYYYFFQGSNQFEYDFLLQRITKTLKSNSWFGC
A further assay concerns Glycine max. Nature of the assay: Inhibition of soybean 5-LOX relative to control.
The next assay concerns the target Lethal factor (Bacillus anthracis, UniProt P15917). The assay is described as follows: Inhibition of anthrax lethal factor.
Assay [6] concerns the target Amyloid-beta precursor protein (Homo sapiens) (UniProt P05067). The assay is described as follows: Inhibition of amyloid beta (1 to 42 ) (unknown origin) self aggregation at 100 uM relative to control.
The test system of the next assay is SH-SY5Y. The assay is described as follows: Protection against amyloid beta (1 to 42) induced toxicity in human SH-SY5Y cells assessed as increase in cell viability. It counts as functional.
For assay [7], the target named is T3, Neutrophil collagenase (Homo sapiens, UniProt P22894). Nature of the assay: Inhibition of human MMP-8.
Target sequence in this assay (P22894 whole entry): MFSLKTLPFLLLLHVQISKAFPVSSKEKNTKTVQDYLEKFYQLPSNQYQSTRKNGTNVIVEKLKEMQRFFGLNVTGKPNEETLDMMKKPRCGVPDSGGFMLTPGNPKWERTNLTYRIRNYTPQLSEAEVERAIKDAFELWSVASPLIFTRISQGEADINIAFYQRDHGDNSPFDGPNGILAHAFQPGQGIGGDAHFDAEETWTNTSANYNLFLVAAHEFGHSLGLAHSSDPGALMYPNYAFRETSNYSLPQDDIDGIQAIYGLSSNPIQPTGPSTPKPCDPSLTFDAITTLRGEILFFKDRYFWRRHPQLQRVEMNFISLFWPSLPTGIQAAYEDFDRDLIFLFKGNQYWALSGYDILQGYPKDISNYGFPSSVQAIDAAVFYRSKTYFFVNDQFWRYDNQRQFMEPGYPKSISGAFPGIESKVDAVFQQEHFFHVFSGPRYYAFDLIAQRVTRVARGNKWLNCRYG
A further assay concerns the target T4, Interstitial collagenase (Homo sapiens, UniProt P03956).
T4 sequence (P03956 whole entry): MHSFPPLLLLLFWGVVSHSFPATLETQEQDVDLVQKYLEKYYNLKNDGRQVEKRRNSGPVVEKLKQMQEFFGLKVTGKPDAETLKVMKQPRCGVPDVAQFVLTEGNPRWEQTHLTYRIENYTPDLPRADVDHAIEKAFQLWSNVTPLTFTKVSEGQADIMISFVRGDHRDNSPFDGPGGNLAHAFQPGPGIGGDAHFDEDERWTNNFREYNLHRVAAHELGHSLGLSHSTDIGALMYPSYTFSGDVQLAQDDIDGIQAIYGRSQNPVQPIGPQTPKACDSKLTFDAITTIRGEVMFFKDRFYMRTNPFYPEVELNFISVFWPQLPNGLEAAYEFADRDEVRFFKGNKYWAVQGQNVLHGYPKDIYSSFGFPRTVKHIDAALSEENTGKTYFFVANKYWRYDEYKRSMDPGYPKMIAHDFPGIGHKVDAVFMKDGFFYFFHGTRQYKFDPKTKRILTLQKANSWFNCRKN
The assay is described as follows: Inhibition of human MMP-1.

The target in the next assay is Collagenase 3 (Homo sapiens, UniProt P45452). The assay is described as follows: Inhibition of human MMP-13.
The target in assay [8] is T5, Matrix metalloproteinase-9 (Homo sapiens, UniProt P14780). The assay is described as follows: Inhibition of human MMP-9.
T5 sequence (P14780 whole entry): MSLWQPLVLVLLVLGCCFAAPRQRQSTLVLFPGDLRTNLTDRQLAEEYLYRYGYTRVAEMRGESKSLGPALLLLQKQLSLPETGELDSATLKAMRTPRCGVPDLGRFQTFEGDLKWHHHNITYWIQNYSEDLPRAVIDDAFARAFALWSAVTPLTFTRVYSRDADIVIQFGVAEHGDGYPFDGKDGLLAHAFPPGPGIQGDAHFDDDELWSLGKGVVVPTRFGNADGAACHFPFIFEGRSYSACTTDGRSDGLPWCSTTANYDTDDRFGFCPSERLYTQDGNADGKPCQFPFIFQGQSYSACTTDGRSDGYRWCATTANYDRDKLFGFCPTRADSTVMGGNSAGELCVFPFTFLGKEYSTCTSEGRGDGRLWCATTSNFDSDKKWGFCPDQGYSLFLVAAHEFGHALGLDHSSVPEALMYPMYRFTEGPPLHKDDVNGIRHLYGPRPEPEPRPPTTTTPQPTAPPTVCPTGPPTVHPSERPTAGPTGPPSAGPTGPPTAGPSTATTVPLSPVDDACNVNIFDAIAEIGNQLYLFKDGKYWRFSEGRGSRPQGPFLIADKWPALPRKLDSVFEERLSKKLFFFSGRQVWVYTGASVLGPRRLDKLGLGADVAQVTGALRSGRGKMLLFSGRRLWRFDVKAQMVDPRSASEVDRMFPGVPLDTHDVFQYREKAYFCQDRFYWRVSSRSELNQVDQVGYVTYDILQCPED
For the next assay, the target named is T6, Matrilysin (Homo sapiens, UniProt P09237).
T6 sequence (P09237 whole entry): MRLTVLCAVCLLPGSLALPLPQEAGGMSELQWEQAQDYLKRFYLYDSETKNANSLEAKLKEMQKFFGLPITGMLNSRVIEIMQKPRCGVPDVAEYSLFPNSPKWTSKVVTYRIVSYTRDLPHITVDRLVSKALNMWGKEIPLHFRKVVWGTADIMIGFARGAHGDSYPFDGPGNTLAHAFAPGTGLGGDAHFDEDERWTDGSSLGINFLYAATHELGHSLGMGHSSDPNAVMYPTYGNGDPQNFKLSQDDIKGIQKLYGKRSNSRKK
The assay is described as follows: Inhibition of human MMP-7.

The target of assay [9] is T3, Neutrophil collagenase. Nature of the assay: Inhibition of beta-glucosidase activated MMP-8 (unknown origin) relative to control. The following applies: concentration not given here.
Assay [10] addresses T5, Matrix metalloproteinase-9. The assay is described as follows: Inhibition of beta-glucosidase activated MMP-9 (unknown origin) relative to control. The following applies: concentration not given here.
Assay [11] concerns the target T1, Mushroom tyrosinase. The assay is described as follows: Inhibition of mushroom monophenolase activity by Lineweaver-burk reciprocal plot analysis.
Assay [12] concerns the target T7, Mushroom tyrosinase (Agaricus bisporus) (UniProt O42713+Q00024+C7FF04+C7FF05). The assay is described as follows: Inhibition of mushroom Diphenolase activity using L-DOPA as substrate preincubated with substrate followed by compound addition by Lineweaver-burk reciprocal plot analysis.
Assay [13] concerns the target T1, Mushroom tyrosinase. Nature of the assay: Inhibition of mushroom Diphenolase activity by Lineweaver-burk reciprocal plot analysis.
Assay [14] concerns the target T7, Mushroom tyrosinase (Agaricus bisporus). Nature of the assay: Inhibition of mushroom monophenolase activity using L-DOPA as substrate preincubated with substrate followed by compound addition by Lineweaver-burk reciprocal plot analysis.
Assay [15] in a line: Inhibition of NDM-1 (unknown origin) relative to control. Further details: concentration or dose not given beside the values. The following applies: Bacteria; concentration not given here.
Assay [16] addresses T2, Macrophage metalloelastase. The assay is described as follows: Inhibition of human MMP-12.
The species entered for assay [17] is Rattus norvegicus. The assay is described as follows: Cardioprotective activity in myocardial ischemia/reperfusion induced Sprague-Dawley rat injury model assessed as improved coronary flow rate. It counts as functional.
For assay [18], the species on record is Rattus norvegicus. The assay is described as follows: Cardioprotective activity in myocardial ischemia/reperfusion induced Sprague-Dawley rat injury model assessed as recovery of contractile function. In kind it is functional.
Assay [19] is filed under the species Rattus norvegicus. The assay is described as follows: Cardioprotective activity in myocardial ischemia/reperfusion induced Sprague-Dawley rat injury model assessed as improved RPP. In kind it is functional.
For assay [20], the species on record is Rattus norvegicus. The assay is described as follows: Cardioprotective activity in myocardial ischemia/reperfusion induced Sprague-Dawley rat injury model assessed as reduction in fibrillar collagen damage. It counts as functional. Further details: scale not given: the % may be the effect or the level left.
The species entered for assay [21] is Rattus norvegicus. Nature of the assay: Cardioprotective activity in myocardial ischemia/reperfusion induced Sprague-Dawley rat injury model assessed as reduction in muscle damage. In kind it is functional. The arrangement: scale not given: the % may be the effect or the level left.
Assay [22] has as its target T5, Matrix metalloproteinase-9. The assay is described as follows: Inhibition of MMP-9 (unknown origin).
In a further assay the target is Stromelysin-1 (Homo sapiens, UniProt P08254). The assay is described as follows: Inhibition of MMP-3 (unknown origin).
Sequence of Stromelysin-1 (P08254 whole entry): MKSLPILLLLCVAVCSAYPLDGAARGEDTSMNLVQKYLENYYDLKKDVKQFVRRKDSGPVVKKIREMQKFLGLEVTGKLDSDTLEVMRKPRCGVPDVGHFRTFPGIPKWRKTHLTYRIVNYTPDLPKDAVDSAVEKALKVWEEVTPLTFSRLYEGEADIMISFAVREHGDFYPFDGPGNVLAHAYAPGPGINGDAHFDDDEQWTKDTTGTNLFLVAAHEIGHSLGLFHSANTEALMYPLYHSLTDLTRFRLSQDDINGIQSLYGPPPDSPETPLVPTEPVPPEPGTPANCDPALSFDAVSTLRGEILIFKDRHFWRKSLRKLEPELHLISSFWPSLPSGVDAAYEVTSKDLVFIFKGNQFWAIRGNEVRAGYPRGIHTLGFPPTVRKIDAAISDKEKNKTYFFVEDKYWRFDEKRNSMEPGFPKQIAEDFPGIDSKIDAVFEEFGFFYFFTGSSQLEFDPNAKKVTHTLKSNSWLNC
For assay [23], the target named is 72 kDa type IV collagenase (Homo sapiens, UniProt P08253). Nature of the assay: Inhibition of MMP-2 (unknown origin).

Molecules are shown by their SMILES.

Sequence of Acetylcholinesterase (O42275 whole entry): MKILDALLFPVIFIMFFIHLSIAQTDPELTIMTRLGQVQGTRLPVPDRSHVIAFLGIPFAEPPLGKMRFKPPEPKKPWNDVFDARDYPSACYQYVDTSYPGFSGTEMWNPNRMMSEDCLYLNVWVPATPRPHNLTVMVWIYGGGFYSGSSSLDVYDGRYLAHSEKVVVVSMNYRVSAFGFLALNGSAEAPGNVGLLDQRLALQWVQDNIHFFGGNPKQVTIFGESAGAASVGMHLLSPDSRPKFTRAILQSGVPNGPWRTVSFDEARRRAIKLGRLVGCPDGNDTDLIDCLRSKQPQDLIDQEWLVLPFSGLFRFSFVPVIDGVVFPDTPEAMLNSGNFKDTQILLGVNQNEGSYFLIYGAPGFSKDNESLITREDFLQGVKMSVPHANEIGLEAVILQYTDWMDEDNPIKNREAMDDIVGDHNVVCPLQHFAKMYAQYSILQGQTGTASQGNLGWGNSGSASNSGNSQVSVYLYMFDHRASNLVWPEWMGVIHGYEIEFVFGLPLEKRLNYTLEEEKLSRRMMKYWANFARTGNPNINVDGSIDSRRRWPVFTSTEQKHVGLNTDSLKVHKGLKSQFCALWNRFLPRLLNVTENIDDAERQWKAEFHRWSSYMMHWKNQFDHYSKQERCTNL
Sequence of Lethal factor (P15917 whole entry): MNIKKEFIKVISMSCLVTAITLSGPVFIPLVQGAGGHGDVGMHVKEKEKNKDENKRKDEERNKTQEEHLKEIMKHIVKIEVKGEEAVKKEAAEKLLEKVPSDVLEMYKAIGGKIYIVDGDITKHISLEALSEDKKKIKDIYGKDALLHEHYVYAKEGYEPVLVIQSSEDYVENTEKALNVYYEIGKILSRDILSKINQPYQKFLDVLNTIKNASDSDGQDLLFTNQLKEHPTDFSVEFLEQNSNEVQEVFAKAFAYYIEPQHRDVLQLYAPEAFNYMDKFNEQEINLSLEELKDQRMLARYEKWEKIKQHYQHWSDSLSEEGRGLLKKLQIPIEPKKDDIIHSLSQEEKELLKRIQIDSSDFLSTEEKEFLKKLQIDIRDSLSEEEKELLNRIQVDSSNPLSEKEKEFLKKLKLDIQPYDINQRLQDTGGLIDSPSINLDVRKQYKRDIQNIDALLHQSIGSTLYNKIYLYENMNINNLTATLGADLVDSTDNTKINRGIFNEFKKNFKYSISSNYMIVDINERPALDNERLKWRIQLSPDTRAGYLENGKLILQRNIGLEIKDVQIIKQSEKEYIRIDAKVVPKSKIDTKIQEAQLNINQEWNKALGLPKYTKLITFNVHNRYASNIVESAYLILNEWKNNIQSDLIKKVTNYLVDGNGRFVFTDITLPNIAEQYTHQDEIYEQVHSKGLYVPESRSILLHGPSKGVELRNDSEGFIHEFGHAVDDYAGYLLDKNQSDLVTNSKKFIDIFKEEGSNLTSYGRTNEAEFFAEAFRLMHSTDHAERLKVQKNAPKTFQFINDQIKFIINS
Sequence of Amyloid-beta precursor protein (Homo sapiens) (P05067 whole entry): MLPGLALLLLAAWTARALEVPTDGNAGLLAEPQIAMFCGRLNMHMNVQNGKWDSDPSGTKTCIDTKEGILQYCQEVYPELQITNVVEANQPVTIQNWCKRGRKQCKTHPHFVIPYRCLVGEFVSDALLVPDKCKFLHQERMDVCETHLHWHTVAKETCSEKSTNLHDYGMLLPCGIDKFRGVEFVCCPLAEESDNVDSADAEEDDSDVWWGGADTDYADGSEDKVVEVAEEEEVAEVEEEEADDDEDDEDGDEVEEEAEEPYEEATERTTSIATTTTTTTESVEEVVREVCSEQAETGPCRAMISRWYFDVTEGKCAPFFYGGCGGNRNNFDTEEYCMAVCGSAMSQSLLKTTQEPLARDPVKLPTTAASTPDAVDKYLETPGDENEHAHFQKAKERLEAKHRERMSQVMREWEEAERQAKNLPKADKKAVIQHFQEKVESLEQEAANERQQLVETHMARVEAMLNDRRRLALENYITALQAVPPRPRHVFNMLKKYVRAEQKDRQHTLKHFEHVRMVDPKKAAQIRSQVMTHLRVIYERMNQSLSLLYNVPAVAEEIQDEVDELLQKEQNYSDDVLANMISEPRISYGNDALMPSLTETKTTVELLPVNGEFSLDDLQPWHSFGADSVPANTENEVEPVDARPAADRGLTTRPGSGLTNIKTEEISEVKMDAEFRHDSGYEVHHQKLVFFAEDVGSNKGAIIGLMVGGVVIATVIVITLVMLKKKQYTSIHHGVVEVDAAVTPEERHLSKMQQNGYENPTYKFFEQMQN

What is called IC50 is the concentration that inhibits the measured activity by half. `Cc1c(OCc2ccccc2)c(=O)ccn1-c1ccc(CC(=O)Nc2ccc(Cc3nc4ccccc4s3)cc2)cc1` yielded a 50% inhibitory concentration (IC50) against Acetylcholinesterase of 14.7 µM.
Turning to `CCCCCCCCn1cc(O)c(=O)cc1COC(=O)[C@H](N)Cc1ccccc1`, the IC50 on Mushroom tyrosinase [1] came to 12.6 µM; on Mushroom tyrosinase [2], 4.01 µM.
Take `Cc1cc(=O)c(O)c(CO)n1CCn1cc(COc2ccc3ccc(=O)oc3c2)nn1`: it took 0.68 µM to reach half-maximal inhibition in [3] (IC50).
What is called inhibition is how much of the control response was suppressed. Regarding `Oc1coc2ccccc2c1=S`, the inhibition in [4] is more than 90%; in [5], 93%.
For the compound `O=C(O)c1c[nH]c2ccccc2c1=S`, the inhibition in assay [5] worked out at 93%.
`CCCNC(=O)CCC(=O)NCc1c(O)c(=O)cc(C)n1C` displayed an inhibition in the assay on Glycine max of 10%.
As for `Cc1cc(=S)c(O)c(C(=O)NCc2ccc(-c3ccccc3)cc2)o1`, inhibition against Lethal factor was half-maximal at 13.9 µM (IC50).
`Cc1c(OCc2ccccc2)c(=O)ccn1-c1ccc(CC(=O)Nc2ccc(-c3nc4ccccc4s3)cc2)cc1` registered an inhibition in assay [6] of 68%. Besides, the Activity in the assay on SH-SY5Y is listed as 100%. On Acetylcholinesterase, this compound had an IC50 of 14.7 µM.
With `Cc1cc(=O)c(O)c(C(=O)NCc2ccc(-c3ccccc3)cc2)n1C`, the IC50 against Neutrophil collagenase [7] was found to be 1.2 µM; at Interstitial collagenase, 25 µM; on Collagenase 3, 4 µM; in assay [8], 25 µM; at Matrilysin it was 25 µM.
Turning to `Cc1occc(=O)c1O[C@@H]1O[C@H](CO)[C@@H](O)[C@H](O)[C@H]1O`, the inhibition worked out at 33% on Neutrophil collagenase [9] and 73% in [10].
As a reminder, the Ki is the equilibrium dissociation constant of an inhibitor or competing ligand from its target. For the compound `CCCCCCCCO/N=C/c1cc(=O)c(O)c[nH]1`, the Ki on Mushroom tyrosinase [11] and on Mushroom tyrosinase [13] was 32.54 µM each time. For the same compound, the Kis in assay [12] and in [14] was 21.3 µM each time. Also, the values for the IC50 against Mushroom tyrosinase [1] and on Mushroom tyrosinase [2] were 1.6 µM and 7.99 µM, respectively.
The compound `Cc1cc(=O)c(O)c(CO)n1CCCn1cc(COc2cc3ccccc3oc2=O)nn1` displayed an IC50 in assay [3] of 0.86 µM.
As to `CS(=O)(=O)Cc1cccc(=S)n1O`, the inhibition in assay [15] is 90%; in assay [4] it was more than 90%; in assay [5], 93%.
Take `Cn1ccc(=O)c(O)c1C(=O)NCc1ccc(-c2ccccc2)cc1`: the IC50 on Neutrophil collagenase [7] was determined as 1.2 µM; on Interstitial collagenase, 25 µM; at Collagenase 3, 4 µM; in [8], 25 µM; against Matrilysin, 25 µM.
On to `Cc1cc(=O)c(O)c(C(=O)NCc2ccc(-c3ccccc3)cc2)o1`, for which the IC50 at Neutrophil collagenase [7] amounted to 0.018 µM; in assay [16], 0.018 µM; against Interstitial collagenase it was 25 µM; against Collagenase 3, 4 µM; in assay [8] it was 25 µM; against Matrilysin, 25 µM.
As to `O=C(NCc1ccc(-c2ccccc2)cc1)c1cccc(=O)n1O`, the IC50 was 0.018 µM at Neutrophil collagenase [7]; 25 µM on Interstitial collagenase; 4 µM on Collagenase 3; 25 µM in assay [8]; 25 µM on Matrilysin. In addition, the Activity amounted to 22% in the assay filed under Rattus norvegicus [17]; 80% in the assay filed under Rattus norvegicus [18]; 23% in the assay filed under Rattus norvegicus [19]; 60% in the assay listed under Rattus norvegicus [20]; 25% in the assay filed under Rattus norvegicus [21].
Regarding `On1ccc2[nH]cnc2c1=S`, the inhibition in assay [15] came to 90%.
As for `Cc1c(O)c(=S)ccn1Cc1ccc(-c2ccccc2)cc1`, the IC50 in assay [22] came out at 2 µM; at Lethal factor, 3 µM; on Stromelysin-1 it was 4 µM; in assay [23], 1 µM.
